Results taken from US8048879B2, “Substituted 4,5,6,7-tetrahydro-isoxazolo[4,5-c]pyridine compounds and use thereof for producing medicaments” (Gruenenthal GmbH, priority 2005, dated 2011).

test system: batrachotoxin (BTX) binding site of the sodium channel; assay: Affinity for the batrachotoxin (BTX) binding site of the sodium channel, [3H]-batrachotoxinin A20 α-benzoate, rat cerebrocortex synaptosomes; conditions: test concentration not given

Structure (SMILES) | BTX inhibition (rat) % inhibition [%]
O=C(NC1CCCC1)c1noc2c1CN(C(=O)NCc1ccc(F)cc1)CC2 [Example 2, 6,7-dihydro-4H-isoxazolo[4,5-c]pyridine-3,5-dicarboxylic acid 3-cyclopentyl amide 5-(4-fluorobenzyl amide)] | 83
O=C(Nc1ccccc1)c1noc2c1CN(C(=O)Nc1ccc(OC(F)(F)F)cc1)CC2 [Example 3, 6,7-dihydro-4H-isoxazolo[4,5-c]pyridine-3,5-dicarboxylic acid 3-phenyl amide 5-[(4-trifluoromethoxy-phenyl) amide]] | 73
Cc1ccc(NC(=O)N2CCc3onc(C(=O)NCCc4ccccc4)c3C2)cc1[N+](=O)[O-] [Example 4, 6,7-dihydro-4H-isoxazolo[4,5-c]pyridine-3,5-dicarboxylic acid 5-[(4-methyl-3-nitro-phenyl) amide] 3-(phenethyl amide)] | 80
O=C(NCCc1ccccc1)c1noc2c1CN(C(=O)Nc1cccc(F)c1)CC2 [Example 8, 6,7-dihydro-4H-isoxazolo[4,5-c]pyridine-3,5-dicarboxylic acid 5-[(3-fluorophenyl) amide] 3-(phenethyl amide)] | 72
Cc1ccc(NC(=O)N2CCc3onc(C(=O)NCc4cccs4)c3C2)cc1[N+](=O)[O-] [Example 9, 6,7-dihydro-4H-isoxazolo[4,5-c]pyridine-3,5-dicarboxylic acid 5-[(4-methyl-3-nitro-phenyl) amide] 3-[(thiophen-2-ylmethyl) amide]] | 43
O=C(NCc1ccccc1)c1noc2c1CN(C(=O)NCCc1ccccc1)CC2 [Example 10, 6,7-dihydro-4H-isoxazolo[4,5-c]pyridine-3,5-dicarboxylic acid 3-benzyl amide 5-(phenethyl amide)] | 64
N#Cc1cccc(NC(=O)N2CCc3onc(C(=O)NCc4cccs4)c3C2)c1 [Example 12, 6,7-dihydro-4H-isoxazolo[4,5-c]pyridine-3,5-dicarboxylic acid 5-[(3-cyano-phenyl) amide]3-[(thiophen-2-ylmethyl) amide]] | 47
CCOc1ccc(NC(=O)N2CCc3onc(C(=O)Nc4ccccc4)c3C2)cc1 [Example 13, 6,7-dihydro-4H-isoxazolo[4,5-c]pyridine-3,5-dicarboxylic acid 5-[(4-ethoxy-phenyl) amide] 3-phenyl amide] | 58
Cc1ccc(NC(=O)N2CCc3onc(C(=O)NCc4ccc(F)cc4)c3C2)cc1[N+](=O)[O-] [Example 14, 6,7-dihydro-4H-isoxazolo[4,5-c]pyridine-3,5-dicarboxylic acid 3-(4-fluorobenzyl amide) 5-[(4-methyl-3-nitro-phenyl) amide]] | 70
CC(NC(=O)N1CCc2onc(C(=O)NCCc3ccccc3)c2C1)c1cccc2ccccc12 (centres unmarked) [Example 18, 6,7-dihydro-4H-isoxazolo[4,5-c]pyridine-3,5-dicarboxylic acid 5-[(1-naphthalen-1-yl-ethyl) amide]3-(phenethyl amide)] | 75
CCOc1ccc(NC(=O)N2CCc3onc(C(=O)NCc4ccc(F)cc4)c3C2)cc1 [Example 21, 6,7-dihydro-4H-isoxazolo[4,5-c]pyridine-3,5-dicarboxylic acid 5-[(4-ethoxy-phenyl) amide] 3-(4-fluorobenzyl amide)] | 68
COc1ccc(Cl)cc1NC(=O)N1CCc2onc(C(=O)NCCc3ccccc3)c2C1 [Example 22, 6,7-dihydro-4H-isoxazolo[4,5-c]pyridine-3,5-dicarboxylic acid 5-[(5-chloro-2-methoxyphenyl) amide] 3-(phenethyl amide)] | 56
CCOC(=O)c1cccc(NC(=O)N2CCc3onc(C(=O)NCc4ccc(C)o4)c3C2)c1 [Example 23, 3-({3-[(5-methyl-furan-2-ylmethyl)-carbamoyl]-6,7-dihydro-4H-isoxazolo[4 5-c]pyridine-5-carbonyl}-amino)-benzoic acid ethyl ester] | 46
O=C(O)CC1(CC(=O)N2CCc3onc(C(=O)Nc4ccccc4)c3C2)CCCC1 [Example 28, {1-[2-oxo-2-(3-phenylcarbamoyl-6,7-dihydro-4H-isoxazolo[4,5-c]pyridin-5-yl)-ethyl]-cyclopentyl}acetic acid] | 60
O=C(c1noc2c1CN(S(=O)(=O)c1ccc(OC(F)(F)F)cc1)CC2)N(CCc1ccccc1)Cc1ccccc1 [Example 32, 5-(4-trifluoromethoxy-benzenesulfonyl)-4,5,6,7-tetrahydro-isoxazolo[4,5-c]pyridine-3-carboxylic acid benzyl-phenethyl amide] | 59
O=C(NC1CCN(Cc2ccc3ccccc3c2)C1)c1noc2c1CN(S(=O)(=O)c1ccccc1)CC2 (centres unmarked) [Example 33, 5-benzenesulfonyl-4,5,6,7-tetrahydro-isoxazolo[4,5-c]pyridine-3-carboxylic acid (1-naphthalen-2-ylmethyl-pyrrolidin-3-yl) amide] | 93
O=C(c1noc2c1CN(S(=O)(=O)c1ccc(F)cc1)CC2)N1CCN(c2ncnc3sccc23)CC1 [Example 34] | 42
O=C(NCCCc1ccccc1)c1noc2c1CN(S(=O)(=O)c1ccc(F)cc1)CC2 [Example 35, 5-(4-fluoro-benzenesulfonyl)-4,5,6,7-tetrahydro-isoxazolo[4,5-c]pyridine-3-carboxylic acid (3-phenyl-propyl) amide] | 59
O=C(NC1CCN(Cc2ccc(C(F)(F)F)cc2)C1)c1noc2c1CN(S(=O)(=O)c1ccc(F)cc1)CC2 (centres unmarked) [Example 39, 5-(4-fluoro-benzenesulfonyl)-4,5,6,7-tetrahydro-isoxazolo[4,5-c]pyridine-3-carboxylic acid [1-(4-trifluoromethyl-benzyl)-pyrrolidin-3-yl]amide] | 79
O=C(NC1CCCC1OCc1ccccc1)c1noc2c1CN(S(=O)(=O)c1cc(Cl)ccc1Cl)CC2 (centres unmarked) [Example 40, 5-(2,5-dichloro-benzenesulfonyl)-4,5,6,7-tetrahydro-isoxazolo[4,5-c]pyridine-3-carboxylic acid (2-benzyloxy-cyclopentyl) amide] | 65
O=C(c1noc2c1CN(S(=O)(=O)c1ccc(F)cc1)CC2)N1CC=C(c2ccc(F)cc2)CC1 [Example 42, [5-(4-fluoro-benzenesulfonyl)-4,5,6,7-tetrahydro-isoxazolo[4,5-c]pyridin-3-yl]-[4-(4-fluorophenyl)-3,6-dihydro-2H-pyridin-1-yl]-methanone] | 54
CC12CCC(C(=O)N3CCc4onc(C(=O)NCCN5CCCC5)c4C3)(OC1=O)C2(C)C (centres unmarked) [Example 51, 5-(4,7,7-trimethyl-3-oxo-2-oxa-bicyclo[2.2.1]heptane-1-carbonyl)-4,5,6,7-tetrahydro-isoxazolo[4,5-c]pyridine-3-carboxylic acid (2-pyrrolidin-1-yl-ethyl) amide] | 42
O=C(NCCc1ccccc1Cl)c1noc2c1CN(S(=O)(=O)c1cc(Cl)ccc1Cl)CC2 [Example 52, 5-(2,5-dichloro-benzenesulfonyl)-4,5,6,7-tetrahydro-isoxazolo[4,5-c]pyridine-3-carboxylic acid [2-(2-chlorophenyl)-ethyl] amide] | 44
